In patent publication US10780061B2, “Composition comprising farnesol and use thereof” (Daegu Gyongbuk Institute of Science and Technology, priority 2014, dated 2020):

What was measured:
[1] = tested on: human PGC-1α promoter; test: Screening of compounds using PGC-1α reporter (luciferase) C2C12 cell line; format: cell-based, mouse; details: 10 μM, 48 hours, luciferase luminescence
[2] = tested on: PGC-1α; test: Immunoblotting of tibialis anterior muscles of mice administered with farnesol; format: in vivo, mouse; details: 5 month-old mice, feed with 0.5% w/w farnesol, 5 weeks
Description: 5 month-old C57BL/6 male mice (weighing 22 g) are maintained at a temperature of 22±2° C., humidity of 55±5%, and a light-dark cycle of 12:12 hours. An animal feed containing 0.5% w/w farnesol was supplied by Jung-Ang Lab Animal Inc. A control group is fed with a feed equivalent to a general feed for experimental animals, excluding that no 0.5% w/w farnesol is contained. They are allowed free access to drinking water. Skeletal muscles were separated from the mice and control mouse fed with farnesol for 5 weeks, and subjected to immunoblot analysis. In all the following Examples, administration or feeding of mouse is performed as above, unless otherwise mentioned. […] In this specification, assuming that human life expectancy of 100 years corresponds to mouse life expectancy of 3 years, human life expectancy is estimated from the relationship.

[3] = tested on: extensor digitorum longus muscle fibers; test: Immunohistochemistry of muscle fiber type (MHC2a/MHC2b) in extensor digitorum longus muscle; format: in vivo, mouse
Description: To examine distribution of 2a type muscle fiber and 2b type muscle fiber, extensor digitorum longus muscles of mice administered with farnesol for 5 weeks are subjected to immunohistochemistry. 2a type muscle fiber is an oxidative muscle fiber type, and there are two types: aerobic, that is, oxygen-dependent energy source and anaerobic, that is, oxygen-independent energy source. 2b type muscle fiber is a glycolytic muscle fiber type, and includes only anaerobic energy source. Frozen sections stored in a deep freezer of -80° C. are washed with 1×PBS twice, and fixed with 4% paraformaldehyde at room temperature for 15 minutes, and then washed with 1×PBS twice. The tissue and a permeabilization buffer (0.2% Triton-X/PBS) are reacted at room temperature for 30 minutes, and washed with 1×PBS twice. The tissue and Proteinase K are reacted at 37° C. for 10 minutes for antigen retrieval, and washed with 1×PBS twice, and blocked in a blocking buffer (0.1% gelatin, 5% goat serum, 0.5% BSA, and 0.1% Triton-X) for 1 hr. As a primary antibody, a rabbit antibody specifically binding to MHC2a or MHC2b is diluted with the blocking buffer at a ratio of 1:500 and reacted at 4° C. for 12 hrs, followed by washing with 1×PBS twice. A secondary antibody, anti-rabbit antibody is reacted, followed by washing 1×PBS twice. After sealing, a fluorescence microscope (Nikon, body: Ti-u, camera: DS-RI1, program: NIS-elements BR 3.1) was used for analysis. Farnesol is administered to mice in the same manner as in Section 3 of Example 2, except that 22-month-old mice are used instead of 5-month-old mice and administration is performed for 4 months instead of 5 weeks, and changes in the skeletal muscle type are examined.

[4] = Grip strength of old mice; format: in vivo; details: old mouse, farnesol diet 4 months, vs negative control old mouse
Description: 22-month-old female mice (weighing 30 g) are fed with a control diet and a farnesol diet for 4 months. That is, 22-month-old mice are fed for 4 months, and then 26-month-old mice are analyzed. […] The same mouse is used as a control group, except that it is fed with a diet containing no farnesol. Muscle strength, energy expenditure, glucose tolerance, and fat accumulation of each mouse are evaluated. […] To measure grip strength as an index of mouse muscle strength, a grip strength meter (Bioseb) is used. For measurement of grip strength of mouse, its front paws are allowed to grip the grid, and its tail is then pulled back steadily and horizontally. When the animal releases the grid, the value is used as grip strength. The maximal grip strength values of individual mice are measured 5 times, and mean values are obtained. Grip strength is expressed as a force (g, gram) per weight.

[5] = Fat mass ratio by dual-energy X-ray absorptiometry; format: in vivo; details: old mouse, farnesol diet 4 months
Description: 22-month-old female mice (weighing 30 g) are fed with a control diet and a farnesol diet for 4 months. That is, 22-month-old mice are fed for 4 months, and then 26-month-old mice are analyzed. […] The same mouse is used as a control group, except that it is fed with a diet containing no farnesol. Muscle strength, energy expenditure, glucose tolerance, and fat accumulation of each mouse are evaluated.
The fat mass ratio is determined by dual-energy X-ray absorptiometry (LUNA PIXIMUS, GE Healthcare/LUNA), and measured on combined images after radiation at 40 kV X-ray and 80 kV X-ray four times, respectively.

[6] = tested on: PARIS; test: PARIS protein and transcriptional levels in extensor digitorum longus muscles of old mouse; format: in vivo; details: 24-month-old mouse, farnesol 5 weeks, vs old mouse without farnesol
[7] = tested on: PARIS; test: Immunoprecipitation analysis for PARIS in tibialis anterior muscles; format: in vivo, mouse; details: 4-month-old mice fed with farnesol 0, 1, 2, 3 days
Description: To examine whether farnesol increases PARIS farnesylation in muscles, immunoprecipitation of PARIS is performed in tibialis anterior muscles of 4-month-old mice (female, 22 g) fed with farnesol for a predetermined period, that is, 0, 1, 2, and 3 days. The tibialis anterior muscles which are removed from the mice fed with farnesol are mixed with a lysis buffer (10 mM Tris-HCl, pH 7.4, 150 mM NaCl, 5 mM EDTA, 1% triton X-100, 10 mM Na-β-glycerophosphate, and Complete Protease Inhibitor Mixture (Roche)), and homogenized using a Diax 900 tissue homogenizer. The tissues are left under refrigeration for 30 minutes, and centrifuged at 52,000 rpm for 20 minutes. A supernatant is used for immunoprecipitation.

[8] = tested on: C2C12 myoblasts introduced with FLAG-PARIS WT or C631S; test: Differentiation of PARIS WT or PARIS C631S gene-introduced C2C12 myoblasts (Mhc immunostaining); format: cell-based; details: C2C12, 0.1 M farnesol, 24 hours
Description: Additionally, it is examined whether the presence of farnesol affects farnesylation of PARIS protein in skeletal muscles. To this end, the FLAG-PARIS wild-type (WT) gene or the FLAG-PARIS C631S mutant (hereinafter, referred to as MT) gene is overexpressed in C2C12 myoblasts, and then farnesol is treated thereto, followed by measurement of differentiation. The muscles of mice are introduced with AAV-GFP, AAV-PARIS WT or AAV-PARIS C631S viral vector, and mice are bred by feeding with farnesol, followed by measurement of mitochondrial enzyme activity.
In FIG. 5D, C2C12 myoblasts are introduced with FLAG-PARIS wild-type (WT) gene or FLAG-PARIS C631S mutant (hereinafter, referred to as “MT”) gene, and cultured in the presence of […] farnesol in DMEM containing 10% FBS for 24 hours, followed by measurement of muscle differentiation and mitochondrial enzyme activity. Muscle differentiation is examined by immunostaining using a muscle differentiation marker, Mhc. […] The percentage of Mhc-negative nuclei indicates the cells showing no formation of red-colored myotube among the nucleus-stained myoblasts of A.

[9] = 5-month-old mice, farnesol orally 5 weeks

For `CC(C)=CCC/C(C)=C/CC/C(C)=C/CO` [farnesol, (2E,6E)-3,7,11-trimethyldodeca-2,6,10-trien-1-ol], the “PGC-1α promoter activity relative to control group DMSO” value [1] was “greatly increasing”, the “expression of PGC-1α in tibialis anterior muscle” value [2] was “increased” and the “expression of cytochrome C in tibialis anterior muscle” value [2] was “increased”. For the same compound, the “diameter of oxidative 2a type muscle fiber in EDL” value [3, 9] was “increased”, the “number of glycolytic 2b type muscle fiber in EDL” value [3, 9] was “decreased” and the “number of oxidative 2a type muscle fiber in EDL” value [3, 9] was “increased”. For the same compound, the “number of oxidative 2a type muscle fiber in EDL compared to control” value ([3]; 22-month-old mice, farnesol 4 months) was “about 1.4 times”, the grip strength [4] was “significantly increased” and the fat mass ratio [5] was “significantly decreased”. The “protein expression level of PARIS in EDL” value [6] was “remarkably decreased”, the “transcriptional level of PARIS in EDL” value [6] was “remarkably decreased” and the “farnesylated PARIS level in tibialis anterior muscle” value [7] was “further increases”. The “percentage of Mhc-negative nuclei, FLAG-PARIS C631S” value [8] was “does not significantly decrease” and the “percentage of Mhc-negative nuclei, FLAG-PARIS WT” value [8] was “significantly decreases”.
